{
  "source": "patent US7713969B2",
  "about": "“Compositions and methods for treatment of cancer” (ArQule, Inc., priority 2005, dated 2010)",
  "key": {"HT29": {"test_system": "HT29", "experiment": "Cell viability MTS assay", "format": "cell-based, human", "conditions": "Homo sapiens, HT-29, 72 hours with compound", "procedure,_shortened": "(§1)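 Cells seeded 16-24 h, then exposed to serially diluted compound for 72 h (0.33% DMSO final) at 37° C, 5% CO2. Viability read by MTS/PMS reduction over 4 h, absorbance at 490 nm. IC50 is the concentration giving 50% fewer viable cells than DMSO controls, by non-linear regression.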"}, "SK-MEL-28": {"test_system": "SK-MEL-28", "experiment": "Cell viability MTS assay", "format": "cell-based, human", "conditions": "Homo sapiens, SK-MEL-28, 72 hours with compound", "procedure,_shortened": "as §1"}, "MDA-MB-231 [1]": {"test_system": "MDA-MB-231", "experiment": "Cell viability MTS assay", "format": "cell-based, human", "conditions": "Homo sapiens, MDA-MB-231, 72 hours with compound", "procedure,_shortened": "as §1"}, "PC-3": {"test_system": "PC-3", "experiment": "Cell viability MTS assay", "format": "cell-based, human", "conditions": "Homo sapiens, PC-3, 72 hours with compound", "procedure,_shortened": "as §1"}, "HCT-116": {"test_system": "HCT-116", "experiment": "Cell viability MTS assay", "format": "cell-based, human", "conditions": "Homo sapiens, HCT-116, 72 hours with compound", "procedure,_shortened": "as §1"}, "K562": {"test_system": "K562", "experiment": "Cell viability MTS assay", "format": "cell-based, human", "conditions": "Homo sapiens, K562, 72 hours with compound", "procedure,_shortened": "as §1"}, "A549": {"test_system": "A549", "experiment": "Cell viability MTS assay", "format": "cell-based, human", "conditions": "Homo sapiens, A549, 72 hours with compound", "procedure,_shortened": "as §1"}, "MCF7": {"test_system": "MCF7", "experiment": "Cell viability MTS assay", "format": "cell-based, human", "conditions": "Homo sapiens, MCF7, 72 hours with compound", "procedure,_shortened": "as §1"}, "DU-145": {"test_system": "DU-145", "experiment": "Cell viability MTS assay", "format": "cell-based, human", "conditions": "Homo sapiens, DU-145, 72 hours with compound", "procedure,_shortened": "as §1"}, "SKOV-3": {"test_system": "SKOV-3", "experiment": "Cell viability MTS assay", "format": "cell-based, human", "conditions": "Homo sapiens, SK-OV-3, 72 hours with compound", "procedure,_shortened": "as §1"}, "H661": {"test_system": "H661", "experiment": "Colony formation assay (CFA)", "format": "cell-based", "conditions": "Homo sapiens, NCI-H661; H661, 24 hours exposure, colonies after 14-21 days; read-out: (−)-trans IC50 CFA", "description": "(§2) To determine c-met inhibition, exponentially growing MCF-7 and MDA-MB-231 human breast cancer cells, DLD1 and HT29 human colon cancer cells, PACA2 and PANC-1 human pancreatic cancer cells and NCI-H441 human non-small cell lung cancer cells (H441) were serum starved in 0.5% FBS and treated with increasing amounts of (−)-trans-3-(5,6-dihydro-4H-pyrrolo [3,2,1-ij]quinolin-1-yl)-4(1H-indol-3-yl)pyrrolidine-2,5-dione for 24 hours as indicated. Cells were then left unstimulated or stimulated with 100 ng/mL HGF for 10 minutes and whole cell extracts were prepared. Whole cell lysates (50 μg) were resolved by SDS-PAGE, transferred onto a PVDF membrane, and an enhanced chemiluminescence assay system (ECL) was used to determine the phosphorylation status of c-Met. A polyclonal antibody against phospho (Y1349) c-Met (phospho-c-Met) was obtained from Biosource International and a monoclonal antibody against β-actin was purchased from Invitrogen. Percent inhibition was determined by densitometry using the Scion Image For colony formation assays (CFA), exponentially growing cells were seeded at 2,000 cells per well in 6-well plates and allowed to attach for 24 hours. Increasing concentrations of (−)-trans-3-(5,6-dihydro-4H-pyrrolo[3,2,1-ij]quinolin-1-yl)-4(1H-indol-3-yl)pyrrolidine-2,5-dione (from 0.01 to 30 μM) were then added to the media for another 24 hours. After 24 hours exposure, the drug was removed and fresh media was added for the next 14-21 days, allowing for colony formation. Cells were fixed and stained with GEMSA (Gibco BRL). Colonies of greater than 50 cells were scored as survivors and percentage of cell survival was plotted to determine the IC50. […] The IC50 of (−)-trans-3-(5,6-dihydro-4H-pyrrolo[3,2,1-ij]quinolin-1-yl)-4(1H-indol-3-yl) pyrrolidine-2,5-dione for c-Met expressing solid tumor types is in the 0.1-0.7 μM range following exposure to (−)-trans-3-(5,6-dihydro-4H-pyrrolo[3,2,1-ij]quinolin-1-yl)-4(1H-indol-3-yl)pyrrolidine-2,5-dione for 24 hours, as determined by colony formation assay (CFA)."}, "H446": {"test_system": "H446", "experiment": "Colony formation assay (CFA)", "format": "cell-based", "conditions": "Homo sapiens, NCI-H446; H446, 24 hours exposure, colonies after 14-21 days; read-out: (−)-trans IC50 CFA", "description": "as §2"}, "MDA-MB-231 [2]": {"test_system": "MDA-MB-231", "experiment": "Colony formation assay (CFA)", "format": "cell-based", "conditions": "Homo sapiens; MDA-MB-231, 24 hours exposure, colonies after 14-21 days; read-out: (−)-trans IC50 CFA", "description": "as §2"}, "MCF-7": {"test_system": "MCF-7", "experiment": "Colony formation assay (CFA)", "format": "cell-based", "conditions": "Homo sapiens, MCF7; MCF-7, 24 hours exposure, colonies after 14-21 days; read-out: (−)-trans IC50 CFA", "description": "as §2"}, "PACA2": {"test_system": "PACA2", "experiment": "Colony formation assay (CFA)", "format": "cell-based", "conditions": "Homo sapiens, PaCa-2; PACA2, 24 hours exposure, colonies after 14-21 days; read-out: (−)-trans IC50 CFA", "description": "as §2"}, "H441": {"test_system": "H441", "experiment": "Colony formation assay (CFA)", "format": "cell-based", "conditions": "Homo sapiens, NCI-H441; H441, 24 hours exposure, colonies after 14-21 days; read-out: (−)-trans IC50 CFA", "description": "as §2"}, "PANC-1": {"test_system": "PANC-1", "experiment": "Colony formation assay (CFA)", "format": "cell-based", "conditions": "Homo sapiens; PANC-1, 24 hours exposure, colonies after 14-21 days; read-out: (−)-trans IC50 CFA", "description": "as §2"}, "DLD-1": {"test_system": "DLD-1", "experiment": "Colony formation assay (CFA)", "format": "cell-based", "conditions": "Homo sapiens; DLD-1, 24 hours exposure, colonies after 14-21 days; read-out: (−)-trans IC50 CFA", "description": "as §2"}},
  "data": [
    {"smiles": "O=C1NC(=O)[C@@H](c2cn3c4c(cccc24)CCC3)[C@@H]1c1c[nH]c2ccccc12", "note": "(racemic) [(±)-Trans-3-(5,6-dihydro-4H-pyrrolo[3,2,1-ij]quinolin-1-yl)-4(1H-indol-3-yl)pyrrolidine-2,5-dione]", "values": [
      {"measurement": "IC50", "setting": "HT29", "result": 4.55, "unit": "µM"},
      {"measurement": "IC50", "setting": "SK-MEL-28", "result": 13, "unit": "µM"},
      {"measurement": "IC50", "setting": "MDA-MB-231 [1]", "result": 3.34, "unit": "µM"},
      {"measurement": "IC50", "setting": "PC-3", "result": 4.95, "unit": "µM"},
      {"measurement": "IC50", "setting": "HCT-116", "result": 1.82, "unit": "µM"},
      {"measurement": "IC50", "setting": "K562", "result": 0.424, "unit": "µM"},
      {"measurement": "IC50", "setting": "A549", "result": 10.7, "unit": "µM"},
      {"measurement": "IC50", "setting": "MCF7", "result": "> 100", "unit": "µM"},
      {"measurement": "IC50", "setting": "DU-145", "result": 9.61, "unit": "µM"},
      {"measurement": "IC50", "setting": "SKOV-3", "result": 0.939, "unit": "µM"}
    ]},
    {"smiles": "O=C1NC(=O)C(c2cn3c4c(cccc24)CCC3)C1c1c[nH]c2ccccc12", "note": "(single isomer, unassigned; (-))", "values": [
      {"measurement": "IC50", "setting": "H661", "result": 5, "unit": "µM"},
      {"measurement": "IC50", "setting": "H446", "result": 4, "unit": "µM"},
      {"measurement": "IC50", "setting": "MDA-MB-231 [2]", "result": 0.3, "unit": "µM"},
      {"measurement": "IC50", "setting": "MCF-7", "result": 0.4, "unit": "µM"},
      {"measurement": "IC50", "setting": "PACA2", "result": 0.3, "unit": "µM"},
      {"measurement": "IC50", "setting": "H441", "result": 0.2, "unit": "µM"},
      {"measurement": "IC50", "setting": "PANC-1", "result": 0.5, "unit": "µM"},
      {"measurement": "IC50", "setting": "DLD-1", "result": 0.7, "unit": "µM"},
      {"measurement": "IC50", "setting": "HT29", "result": 1.95, "unit": "µM"},
      {"measurement": "IC50", "setting": "SK-MEL-28", "result": 8.68, "unit": "µM"},
      {"measurement": "IC50", "setting": "MDA-MB-231 [1]", "result": 2.19, "unit": "µM"},
      {"measurement": "IC50", "setting": "PC-3", "result": 1.28, "unit": "µM"},
      {"measurement": "IC50", "setting": "HCT-116", "result": 0.812, "unit": "µM"},
      {"measurement": "IC50", "setting": "K562", "result": 0.294, "unit": "µM"},
      {"measurement": "IC50", "setting": "A549", "result": 5.8, "unit": "µM"},
      {"measurement": "IC50", "setting": "MCF7", "result": "> 100", "unit": "µM"},
      {"measurement": "IC50", "setting": "DU-145", "result": 4, "unit": "µM"},
      {"measurement": "IC50", "setting": "SKOV-3", "result": 0.444, "unit": "µM"}
    ]}
  ]
}
